From patent US9629364B2, “Synergistic weed control from applications of aminopyralid and clopyralid” (Dow AgroSciences LLC, priority 2012, dated 2017)
Counter-ions that a name gives are not always drawn.

Tested on: black nightshade (Solanam nigram)
Assay: Field trial, post-emergence foliar application, weed control rating 0-100%
Type: in vivo
Conditions: SOLNI, 56 days after first application, with 0.5 L/ha ACTIROB
Description: The (a) aminopyralid or an agriculturally acceptable salt or ester thereof is mixed with or applied in combination with (b) clopyralid or an agriculturally acceptable salt or ester thereof in an amount sufficient to induce a synergistic herbicidal effect. […] As described in the Herbicide Handbook of the Weed Science Society of America, Ninth Edition, 2007, p. 429, “‘synergism’ [is] an interaction of two or more factors such that the effect when combined is greater than the predicted effect based on the response to each factor applied separately.” Synergistic in the herbicide context can mean that the use of (a) and (b) as defined above results in an increased weed control effect compared to the weed control effects that are possible with the use of (a) or (b) alone. In some embodiments, the damage or injury to the undesired vegetation caused by the compositions and methods disclosed herein is evaluated using a scale from 0% to 100%, when compared with the untreated control vegetation, wherein 0% indicates no damage to the undesired vegetation and 100% indicates complete destruction of the undesired vegetation. […] 22 (1967) […]
Colby's equation was used to determine the herbicidal effects expected from the mixtures, as described above. The results were measured at 56 days after the first application of the compositions. […]

SMILES | Mean % weed control (1 g ae/ha applied alone) [%] | Mean % weed control (90 g ae/ha applied alone) [%]
Nc1cc(Cl)nc(C(=O)O)c1Cl [Aminopyralid Potassium Salt, 4-amino-3,6-dichloro-2-pyridinecarboxylic acid] | 0 | 
O=C(O)c1nc(Cl)ccc1Cl [Clopyralid-olamine, 3,6-dichloro-2-pyridinecarboxylic acid] |  | 37.5
